This passage reports tissue uptake results from US12246076B2, “Radiolabeled compounds for in vivo imaging of gastrin-releasing peptide receptor (GRPR) and treatment of GRPR-related disorders” (PROVINCIAL HEALTH SERVICES AUTHORITY, priority 2022, dated 2025).

The nature of data set [1]: Ex vivo biodistribution in PC-3 tumor-bearing mice. Particulars: male, NRG, mouse, iv, total radioactivity, 1 h post-injection, mice bearing PC-3 tumor xenografts, n = 4.
Protocol: (§1) All imaging and biodistribution studies were performed using male NOD.Cg-Rag1^tm1MoM II2rg^tm1WI/SzJ (NRG) mice and conducted according to the guidelines established by the Canadian Council on Animal Care and approved by Animal Ethics Committee of the University of British Columbia. For tumor inoculations, mice were anesthetized by inhalation with 2% isoflurane in oxygen and implanted subcutaneously with 5×10^6 PC-3 cells below the left shoulder. Imaging and biodistribution studies were performed only after tumors grew to 5-8 mm in diameter.
(§2) For PET/CT imaging studies, ˜3-4 MBq of the ^68Ga-labeled tracer was injected through the tail vein. Mice were allowed to recover and roam freely in the cages after injecting the tracer. At 45 min post-injection (p.i.), mice were sedated again and positioned on the scanner. First, a 10 min CT scan was conducted for localization and attenuation correction for reconstruction of PET images, before a 10 min PET image was acquired. Heating pads were used during the entire procedure to keep the mice warm. For ex vivo biodistribution studies, mice were injected with ˜1.5-3 MBq of the ^68Ga-labeled tracer. At 1 h p.i., mice were euthanized, blood was drawn from heart, and organs/tissues of interest were collected, rinsed with PBS, blotted dry, weighed, and counted using an automated gamma counter. The uptake in each organ/tissue was normalized to the injected dose and expressed as the percentage of the injected dose per gram of tissue (% ID/g).
(§3) All imaging and biodistribution studies were performed using male NOD.Cg-Rag1tm1Mom II2rgtm1WjI/SzJ (NRG) mice and conducted according to the guidelines established by the Canadian Council on Animal Care and approved by Animal Ethics Committee of the University of British Columbia. For tumor inoculations, mice were anesthetized by inhalation with 2% isoflurane in oxygen and implanted subcutaneously with 5×10^6 PC-3 cells below the left shoulder. Imaging and biodistribution studies were performed only after tumors grew to 5-8 mm in diameter.
(§4) For PET/CT imaging studies, ˜5 MBq of the ^68Ga-labeled tracer was injected through the tail vein. Mice were allowed to recover and roam freely in the cages after injecting the tracer. At 45 min post-injection (p.i.), mice were sedated again and positioned on the scanner. First, a 10 min CT scan was conducted for localization and attenuation correction for reconstruction of PET images, before a 10 min PET image was acquired. Heating pads were used during the entire procedure to keep the mice warm. For ex vivo biodistribution studies, mice were injected with ˜3 MBq of the 68Ga-labeled tracer. At 1 h p.i., mice were euthanized, blood was drawn from heart, and organs/tissues of interest were collected, rinsed with PBS, blotted dry, weighed, and counted using an automated gamma counter.
A short description of the next data set: in vivo. Particulars: male, NRG, mouse, iv, total radioactivity.
The mark [2] stands for this setting: adrenal, Biodistribution Adrenal Mean.
Setting [3] is: muscle, Biodistribution Muscle Mean.
Setting [4] is: seminal, Biodistribution Seminal Mean.
The mark [5] stands for this setting: PC-3 tumor, Biodistribution PC3 tumor Mean.
The mark [6] stands for this setting: bone, Biodistribution Bone Mean.
The mark [7] stands for this setting: brain, Biodistribution Brain Mean.
Where [8] appears, read: heart, Biodistribution Heart Mean.
Where [9] appears, read: kidneys, Biodistribution Kidneys Mean.
The mark [10] stands for this setting: large intestine, Biodistribution Large Intestine Mean.
The mark [11] stands for this setting: liver, Biodistribution Liver Mean.
The mark [12] stands for this setting: lungs, Biodistribution Lungs Mean.
Setting [13] is: pancreas, Biodistribution Pancreas Mean.
The mark [14] stands for this setting: small intestine, Biodistribution Small Intestine Mean.
The mark [15] stands for this setting: spleen, Biodistribution Spleen Mean.
The mark [16] stands for this setting: stomach, Biodistribution Stomach Mean.
Setting [17] is: testes, Biodistribution Testes Mean.
[18] abbreviates: whole blood, Biodistribution Blood Mean.

Numbered stars: 1 amine (or outer) side, 2 acyl side, 3 side chain; on linkers, the order of the positions; unused ones are H or OH. Square brackets hold non-standard residues; d marks the D form. Peptide text beside a SMILES is read from it. * marks the point of attachment. DOTA = O=C(O)CN1CCN(CC(=O)O)CCN(CC(=O)*)CCN(CC(=O)O)CC1; Leuψ(CH2N)ThzNH2 = CC(C)C[C@@H](CN1CSC[C@H]1C(N)=O)N*; X1 = O=C(CN1CCC(N[*:1])CC1)[*:2]

Protocol for in vivo: as §1, §2, §3, §4

In general, tissue uptake refers to the share of the injected amount in each gram of the tissue. As to `CC(C)C[C@H](NC(=O)[C@H](Cc1c[nH]cn1)N(C)C(=O)CNC(=O)[C@@H](NC(=O)[C@H](C)NC(=O)[C@H](Cc1c[nH]c2ccccc12)NC(=O)[C@H](CCC(N)=O)NC(=O)[C@@H](Cc1ccccc1)NC(=O)CN1CCC(NC(=O)CN2CCN(CC(=O)O)CCN(CC(=O)O)CCN(CC(=O)O)CC2)CC1)C(C)C)C(=O)N1CSC[C@H]1C(N)=O` [^68Ga-LW01107, metal not drawn], the tissue uptake at 1 h stood at 0.32 %ID/g in data set [1] (setting [2]); 0.07 %ID/g in data set [1] (setting [3]); 0.04 %ID/g in data set [1] (setting [4]); 0.3 %ID/g in “in vivo” (Biodistribution Blood Mean); 0.06 %ID/g in the data set “in vivo” (Biodistribution Bone Mean); 0.01 %ID/g in the data set “in vivo” (Biodistribution Brain Mean). The tissue uptake at 1 h in “in vivo” (Biodistribution Fat Mean) worked out at 0.05 %ID/g; in “in vivo” (Biodistribution Heart Mean), 0.11 %ID/g; in the data set “in vivo” (Biodistribution Kidneys Mean), 1.88 %ID/g; in “in vivo” (Biodistribution Large Intestine Mean), 0.18 %ID/g; in the data set “in vivo” (Biodistribution Liver Mean), 0.32 %ID/g; in the data set “in vivo” (Biodistribution Lungs Mean) it was 0.28 %ID/g. For the same molecule, the tissue uptake at 1 h came out at 7.05 %ID/g in “in vivo” (Biodistribution PC3 tumor Mean); 0.39 %ID/g in the data set “in vivo” (Biodistribution Pancreas Mean); 0.31 %ID/g in “in vivo” (Biodistribution Small Intestine Mean); 0.13 %ID/g in “in vivo” (Biodistribution Spleen Mean); 0.07 %ID/g in “in vivo” (Biodistribution Stomach Mean); 0.1 %ID/g in “in vivo” (Biodistribution Testes Mean).

As for `CC(C)C[C@@H](CN1CSC[C@H]1C(N)=O)NC(=O)[C@H](Cc1c[nH]cn1)NC(=O)CNC(=O)[C@@H](NC(=O)[C@H](C)NC(=O)[C@H](Cc1c[nH]c2ccccc12)NC(=O)[C@H](CCC(N)=O)NC(=O)[C@@H](Cc1ccc2ccccc2c1)NC(=O)CN1CCC(NC(=O)CN2CCN(CC(=O)O)CCN(CC(=O)O)CCN(CC(=O)O)CC2)CC1)C(C)C` [^68Ga-LW01059, metal not drawn], the tissue uptake at 1 h came to 6.84 %ID/g in data set [1] (setting [5]); 1.81 %ID/g in data set [1] (setting [2]); 0.42 %ID/g in data set [1] (setting [6]); 0.06 %ID/g in data set [1] (setting [7]); 0.19 %ID/g in data set [1] (fat, Biodistribution Fat Mean); 0.66 %ID/g in data set [1] (setting [8]). The tissue uptake at 1 h in data set [1] (setting [9]) turned out to be 4.49 %ID/g; in data set [1] (setting [10]), 0.66 %ID/g; in data set [1] (setting [11]), 21.5 %ID/g; in data set [1] (setting [12]) it was 3.05 %ID/g; in data set [1] (setting [3]) it was 0.28 %ID/g; in data set [1] (setting [13]), 7.26 %ID/g. Moreover, the tissue uptake at 1 h in data set [1] (setting [14]) stood at 2.15 %ID/g; in data set [1] (setting [15]), 0.68 %ID/g; in data set [1] (setting [16]), 1.1 %ID/g; in data set [1] (setting [17]), 0.33 %ID/g; in data set [1] (setting [18]), 2.16 %ID/g.

Consider `CC(C)C[C@@H](CN1CCC[C@H]1C(N)=O)NC(=O)[C@H](Cc1c[nH]cn1)NC(=O)CN(C)C(=O)[C@@H](NC(=O)[C@H](C)NC(=O)[C@H](Cc1c[nH]c2ccccc12)NC(=O)[C@H](CCC(N)=O)NC(=O)[C@@H](Cc1ccccc1)NC(=O)CN1CCC(NC(=O)CN2CCN(CC(=O)O)CCN(CC(=O)O)CCN(CC(=O)O)CC2)CC1)C(C)C` [^68Ga-LW02045, metal not drawn], for which the tissue uptake at 1 h in data set [1] (setting [5]) came out at 12.4 %ID/g; in data set [1] (setting [2]), 0.44 %ID/g; in data set [1] (setting [6]) it was 0.07 %ID/g; in data set [1] (setting [7]), 0.02 %ID/g; in data set [1] (fat, Biodistribution Fat Mean) it was 0.03 %ID/g; in data set [1] (setting [8]), 0.14 %ID/g. The tissue uptake at 1 h in data set [1] (setting [9]) came out at 2.54 %ID/g; in data set [1] (setting [10]) it was 0.34 %ID/g; in data set [1] (setting [11]), 0.37 %ID/g; in data set [1] (setting [12]), 1.08 %ID/g; in data set [1] (setting [3]), 0.1 %ID/g; in data set [1] (setting [13]), 1.37 %ID/g. The tissue uptake at 1 h came to 3.8 %ID/g in data set [1] (setting [4]); 0.48 %ID/g in data set [1] (setting [14]); 0.18 %ID/g in data set [1] (setting [15]); 0.35 %ID/g in data set [1] (setting [16]); 0.12 %ID/g in data set [1] (setting [17]); 0.43 %ID/g in data set [1] (setting [18]).

`CC(C)C[C@H](NC(=O)[C@H](Cc1c[nH]cn1)NC(=O)CNC(=O)[C@@H](NC(=O)[C@H](C)NC(=O)[C@H](Cc1c[nH]c2ccccc12)NC(=O)[C@H](CCC(N)=O)NC(=O)[C@@H](Cc1ccc2ccccc2c1)NC(=O)CN1CCC(NC(=O)CN2CCN(CC(=O)O)CCN(CC(=O)O)CCN(CC(=O)O)CC2)CC1)C(C)C)C(=O)N1CSC[C@H]1C(N)=O` [^68Ga-LW01029, metal not drawn]: the tissue uptake at 1 h in data set [1] (setting [5]) came to 4.7 %ID/g; in data set [1] (setting [2]) it was 0.82 %ID/g; in data set [1] (setting [6]) it was 0.19 %ID/g; in data set [1] (setting [7]), 0.04 %ID/g; in data set [1] (fat, Biodistribution Fat Mean), 0.18 %ID/g; in data set [1] (setting [8]), 0.36 %ID/g. Besides, the tissue uptake at 1 h in data set [1] (setting [9]) was determined as 4.73 %ID/g; in data set [1] (setting [10]), 0.96 %ID/g; in data set [1] (setting [11]), 0.63 %ID/g; in data set [1] (setting [12]) it was 1.82 %ID/g; in data set [1] (setting [3]), 0.23 %ID/g; in data set [1] (setting [13]), 2.56 %ID/g. In addition, the tissue uptake at 1 h came out at 0.13 %ID/g in data set [1] (setting [4]); 1.05 %ID/g in data set [1] (setting [14]); 0.45 %ID/g in data set [1] (setting [15]); 0.77 %ID/g in data set [1] (setting [16]); 0.33 %ID/g in data set [1] (setting [17]); 1.08 %ID/g in data set [1] (setting [18]).

As to `CC(C)C[C@H](NC(=O)[C@H](Cc1c[nH]cn1)NC(=O)CNC(=O)[C@@H](NC(=O)[C@H](C)NC(=O)[C@H](Cc1c[nH]c2ccccc12)NC(=O)[C@H](CCC(N)=O)NC(=O)[C@@H](Cc1ccccc1)NC(=O)CN1CCC(NC(=O)CN2CCN(CC(=O)O)CCN(CC(=O)O)CCN(CC(=O)O)CC2)CC1)C(C)C)C(=O)N1CSC[C@H]1C(N)=O` [^68Ga-LW01025, metal not drawn], the tissue uptake at 1 h amounted to 6.2 %ID/g in data set [1] (setting [5]); 0.54 %ID/g in data set [1] (setting [2]); 0.24 %ID/g in data set [1] (setting [6]); 0.03 %ID/g in data set [1] (setting [7]); 0.09 %ID/g in data set [1] (fat, Biodistribution Fat Mean); 0.13 %ID/g in data set [1] (setting [8]). In addition, the tissue uptake at 1 h was 2.37 %ID/g in data set [1] (setting [9]); 0.29 %ID/g in data set [1] (setting [11]); 0.34 %ID/g in data set [1] (setting [12]); 0.13 %ID/g in data set [1] (setting [3]); 1.28 %ID/g in data set [1] (setting [13]); 0.06 %ID/g in data set [1] (setting [4]). Moreover, the tissue uptake at 1 h in data set [1] (setting [14]) amounted to 0.56 %ID/g; in data set [1] (setting [15]), 0.23 %ID/g; in data set [1] (setting [16]), 0.54 %ID/g; in data set [1] (setting [17]), 0.16 %ID/g; in data set [1] (setting [18]), 0.34 %ID/g.

Turning to `CC(C)C[C@@H](CN1CSC[C@H]1C(N)=O)NC(=O)[C@H](Cc1c[nH]cn1)NC(=O)CNC(=O)[C@@H](NC(=O)[C@H](C)NC(=O)[C@H](Cc1c[nH]c2ccccc12)NC(=O)[C@H](Cc1c[nH]cn1)NC(=O)[C@@H](Cc1ccccc1)NC(=O)CN1CCC(NC(=O)CN2CCN(CC(=O)O)CCN(CC(=O)O)CCN(CC(=O)O)CC2)CC1)C(C)C` [^68Ga-LW01102, metal not drawn] ({DOTA}-[X1][dF]HWAVGH-{Leuψ(CH2N)ThzNH2}), the tissue uptake at 1 h in data set [1] (setting [5]) turned out to be 7.46 %ID/g; in data set [1] (setting [2]), 1.36 %ID/g; in data set [1] (setting [6]) it was 0.13 %ID/g; in data set [1] (setting [7]), 0.04 %ID/g; in data set [1] (fat, Biodistribution Fat Mean) it was 0.09 %ID/g; in data set [1] (setting [8]) it was 0.36 %ID/g. Further, the tissue uptake at 1 h was found to be 6.3 %ID/g in data set [1] (setting [9]); 1.25 %ID/g in data set [1] (setting [10]); 3.22 %ID/g in data set [1] (setting [11]); 1.55 %ID/g in data set [1] (setting [12]); 0.18 %ID/g in data set [1] (setting [3]); 13.1 %ID/g in data set [1] (setting [13]). Further, the tissue uptake at 1 h in data set [1] (setting [4]) was found to be 0.23 %ID/g; in data set [1] (setting [14]), 2.85 %ID/g; in data set [1] (setting [15]) it was 0.52 %ID/g; in data set [1] (setting [16]) it was 1.23 %ID/g; in data set [1] (setting [17]) it was 0.33 %ID/g; in data set [1] (setting [18]), 1.13 %ID/g.
